# Laboratory results taken from patent publication US20260248769A1, “URINATION DISORDER-A[…]” (priority 2023, published 2026).
# Legend:
# [1] = system: partial BOO rats exhibiting overactive bladder; assay: Cystometry in partial bladder outlet obstruction (BOO) rats: voiding interval and frequency of NVC; type: in vivo, rat; conditions: for NVC frequency compared with the β3 agonist single administration group: co-administered with mirabegron 3 mg/kg i.v., distigmine 0.1 mg/kg or acotiamide 200 mg/kg s.c. (FIG. 15); for voiding interval, effect of a single agent: up to 2 hours, distigmine 0.1 mg/kg s.c., acotiamide 100 and 200 mg/kg s.c., mirabegron 3 mg/kg i.v. (FIG. 14)
# Procedure: Under isoflurane anesthesia, female rats (strain: Crl:CD (SD), 6 weeks old, Jackson Laboratory Japan, Inc.) were subjected to bladder outlet obstruction surgery to prepare partial bladder outlet obstruction (BOO) rats. The sham-operated group was operated similarly except for the partial BOO. Six weeks after surgery, cystometry was performed while awake. A polyethylene catheter (Becton Dickinson: PE50) for cystometry was inserted into and indwellingly placed in the bladder. The catheter indwelling in the bladder was connected to a pressure transducer (Nihon Kohden Corporation) to measure the intravesical pressure. Physiological saline was injected into the bladder using a syringe pump and changes in intravesical pressure were recorded in PowerLab (ADInstruments).
# Distigmine (0.1 mg/kg), acotiamide (100 and 200 mg/kg) or vehicle was subcutaneously administered (5 ml/kg), or a β3-adrenergic receptor agonist (β3 agonist mirabegron, a therapeutic agent for overactive bladder) (3 mg/kg) was intravenously administered (1 mL/kg), and the voiding interval was measured for up to 2 hours.
# The β3 agonist mirabegron (3 mg/kg, intravenous administration [1 mL/kg]) was co-administered with distigmine (0.1 mg/kg) or acotiamide (200 mg/kg) by subcutaneous administration (5 mL/kg), and the frequency of NVC was measured.
# [2] = system: patients with underactive bladder; conditions: in combination with an α1-receptor blocker, cited from earlier work
# [3] = system: female rats under urethane anesthesia; assay: Test for confirming tolerability: induction of cholinergic crisis; type: in vivo, rat; conditions: up to 120 minutes; for induction of cholinergic crisis (hypersecretion, respiratory abnormalities): urethane anesthesia, subcutaneous, distigmine 0.1-0.4 mg/kg, acotiamide 200 and 300 mg/kg
# bladder of normal rats = assay: Cystometry (detrusor muscle contraction pressure measurement) in normal rats; type: in vivo; conditions: normal male rats, subcutaneous; for bladder contraction pressure during voiding / maximum contraction pressure during voiding: 0 to 90 minutes after administration, acotiamide 30 to 200 mg/kg; for bladder contraction pressure during voiding: distigmine 0.01 to 0.1 mg/kg (FIG. 3); for maximum contraction pressure during voiding: distigmine 0.01 to 0.1 mg/kg (FIG. 4); for bladder compliance: 0 to 90 minutes, acotiamide up to 200 mg/kg, distigmine 0.01 to 0.1 mg/kg (FIG. 6); for tolerability in the cystometry test at the highest dose: highest dose acotiamide 200 mg/kg, distigmine 0.3 mg/kg
# Procedure: A polyethylene catheter (PE50) for cystometry was inserted into and indwellingly placed in the bladder of male rats (strain: Crl:CD (SD), 8 weeks old, Jackson Laboratory Japan, Inc.). The catheter indwelling in the bladder was connected to a pressure transducer (Nihon Kohden Corporation) to measure the intravesical pressure. Physiological saline was injected into the bladder using an infusion pump, and changes in intravesical pressure were recorded on a polygraph system (RMT-1000, Nihon Kohden Corporation) and an analysis system (Lab Chart Pro, ADInstruments). Changes in detrusor muscle contraction pressure when distigmine (0.01 to 0.3 mg/kg), acotiamide (3 to 200 mg/kg), or vehicle was subcutaneously administered (5 ml/kg) were measured for 90 minutes.
# normal rats = assay: Uroflowmetry (urine flow rate measurement) in normal rats; type: in vivo, rat; conditions: normal male rats, subcutaneous, measured for 12 hours; acotiamide 30, 100, 200 mg/kg, distigmine 0.1 mg/kg (FIG. 5)
# Procedure: Changes in urine flow rate when distigmine (0.1 mg/kg), acotiamide (30, 100, and 200 mg/kg) or vehicle was subcutaneously administered (5 mL/kg) to male rats (strain: Crl:CD (SD), 8 weeks old, Jackson Laboratory Japan, Inc.) were measured for 12 hours. Changes in urine flow rate were recorded using PowerLab (ADInstruments) by placing a digital balance under the voiding measurement cage to cumulatively collect excreted urine in a container on the balance and measure the change in weight.
# [4] = system: pelvic nerve crush (PNC) rats; assay: Cystometry in underactive bladder model (pelvic nerve crush, PNC) rats; type: in vivo, rat; conditions: PNC female rats, subcutaneous; for detrusor muscle contraction pressure: awake, measured for 60 minutes, acotiamide 30 to 200 mg/kg, distigmine 0.1 mg/kg (FIG. 12); for drug tolerability at the highest dose: highest dose acotiamide 200 mg/kg, distigmine 0.3 mg/kg
# Procedure: Under isoflurane anesthesia, female rats (strain: Crl:CD (SD), 8 weeks old, Jackson Laboratory Japan, Inc.) were subjected to pelvic nerve injury surgery to prepare pelvic nerve crush (PNC) rats. Cystometry was performed while awake, 2 to 4 weeks after surgery. A polyethylene catheter (PE50) for cystometry was inserted into the bladder and indwellingly placed. The catheter indwelling in the bladder was connected to a pressure transducer (Nihon Kohden Corporation) to measure the intravesical pressure. Physiological saline was injected into the bladder using an infusion pump, and changes in intravesical pressure were recorded in a polygraph system (RMT-1000, Nihon Kohden Corporation) (RMT-1000 MG, Miyuki Giken Co., Ltd.) and an analysis system (Lab Chart Pro, ADInstruments).
# Changes in detrusor muscle contraction pressure when distigmine (0.01 to 0.3 mg/kg), acotiamide (3 to 200 mg/kg), or vehicle was subcutaneously administered (5 mL/kg) to PNC rats were measured for 60 minutes.
# [5] = system: bladder M3 receptor (Chrm3); assay: Bladder M3 receptor expression (real-time PCR Chrm3, Western blotting CHRM3) after repeated administration; type: in vivo, rat; conditions: subcutaneous twice daily for two weeks; for Relative gene expression of Chrm3 (Mean ± SE): bladder of normal male rats, real-time PCR, acotiamide 200 mg/kg/day, distigmine 0.2 mg/kg/day; for expression level of the bladder M3 receptor after repeated administration: normal male rats, acotiamide 100 mg/kg, distigmine 0.1 mg/kg per dose (Table 1, FIG. 13)
# Procedure: Distigmine (0.1 mg/kg), acotiamide (100 mg/kg), or vehicle was subcutaneously administered twice daily for two weeks (5 mL/kg per dose) to normal rats (male, strain: Crl:CD (SD), 8 weeks old, Jackson Laboratory Japan, Inc.), and the bladder was collected. The M3 receptor expression level in the collected bladder was examined by gene quantitative analysis by real-time PCR (Chrm3) and protein expression analysis by Western blotting (CHRM3).
# urethra of normal rats = assay: Measurement of LPP (urethral pressure) in normal rats; type: in vivo, rat; conditions: spinal cord transected female rats, subcutaneous; acotiamide 30 to 300 mg/kg, distigmine 0.1 mg/kg, bethanechol 3 mg/kg (FIG. 7)
# Procedure: Using female rats (strain: Crl:CD (SD), 9 weeks old, Jackson Laboratory Japan, Inc.), under isoflurane anesthesia, the spinal cord was transected at the Th8 vertebra, and after ligating and excising the ureters, a catheter (Becton Dickinson: PE-90, PE-50) was inserted and fixed at the bladder dome to prepare the measurement animal. Physiological saline was injected from the catheter, and the maximum intravesical pressure (leak point pressure (LPP)) when leaking from the external urethral opening was recorded by PowerLab (ADInstruments). Changes in leak point pressure when distigmine (0.1 mg/kg), bethanechol (3 mg/kg), acotiamide (30 to 300 mg/kg), or a vehicle was subcutaneously administered (5 mL/kg) were measured.
# [6] = system: bladder of normal guinea pigs; assay: Cystometry and urine flow rate measurement in normal guinea pigs; type: in vivo, guinea pig; conditions: male guinea pigs, intravenous, 0 to 30 minutes, acotiamide 0.1 to 10 mg/kg; for bladder contraction pressure during voiding: distigmine 1 mg/kg (FIG. 8); for maximum contraction pressure during voiding: distigmine 1 mg/kg (FIG. 9); for urine flow rate (maximum urine flow rate and average urine flow rate): distigmine 1 mg/kg (FIG. 10, FIG. 11)
# Procedure: A polyethylene catheter (Becton Dickinson: PE50) was inserted into and fixed to the bladder of a guinea pig (male, strain: Slc: Hartley, 7 weeks old, Japan SLC, Inc.). A catheter indwellingly placed in the bladder was connected to a pressure transducer to measure intravesical pressure. Physiological saline was injected into the bladder using an infusion pump and intravesical pressure was recorded in PowerLab (ADInstruments). The urine flow rate was recorded in PowerLab (ADInstruments) by placing a digital balance under the cage to cumulatively collect excreted urine in a container on the balance and measure the change in weight. Changes in the detrusor muscle contraction pressure and the urine flow rate when distigmine (1 mg/kg), acotiamide (0.1 to 10 mg/kg), or a vehicle was intravenously administered (1 mL/kg) were measured for 30 minutes.
SMILES,NVC frequency compared with the β3 agonist single administration group [1],"voiding interval, effect of a single agent [1]","induction of cholinergic crisis (hypersecretion, respiratory abnormalities) [3]",bladder contraction pressure during voiding (bladder of normal rats),maximum contraction pressure during voiding (bladder of normal rats),bladder compliance (bladder of normal rats),tolerability in the cystometry test at the highest dose (bladder of normal rats),urine flow rate (normal rats),detrusor muscle contraction pressure [4],drug tolerability at the highest dose [4],Relative gene expression of Chrm3 (Mean ± SE) [5],expression level of the bladder M3 receptor after repeated administration [5],leak point pressure (urethral pressure) (urethra of normal rats),bladder contraction pressure during voiding [6],maximum contraction pressure during voiding [6],urine flow rate (maximum urine flow rate and average urine flow rate) [6],further results
"COc1cc(O)c(C(=O)Nc2nc(C(=O)NCCN(C(C)C)C(C)C)cs2)cc1OC [Acotiamide, N-[2-[bis(1-methylethyl)amino]ethyl]-2-[(2-hydroxy-4,5-dimethoxybenzoyl)amino]thiazole-4-carboxamide]",similar,had no effect,did not induce,increased,increased,did not affect,well tolerated,increasing,increased,good tolerability,107.0 ± 12.9,did not reduce,did not change,increased,increased,increasing,"decrease in residual urine volume ([2]; 100 mg orally 3 times a day for 2 weeks): a sufficient decrease in residual urine volume was not obtained; mean value of residual urine volume after administration ([2]; 100 mg orally three times a day for two weeks): ≥ 100 mL; death cases ([3]; 200 and 300 mg/kg subcutaneous): no death cases; action on bladder contraction pressure, 200 mg/kg group compared with 30 and 100 mg/kg groups (bladder of normal rats; 200 mg/kg): extremely strong; action on the detrusor muscle contraction pressure, 200 mg/kg group compared with 30 and 100 mg/kg groups ([4]; 200 mg/kg): extremely strong"
CN(CCCCCCN(C)C(=O)Oc1ccc[n+](C)c1)C(=O)Oc1ccc[n+](C)c1 [Distigmine],increased,significantly shortened,induced,increased,increased,significantly reduced,induced cholinergic crisis,decreased,increased,cholinergic crisis,79.1 ± 11.8,reduced,did not change,increased,increased,decreased,death (animals) ([3]; 0.2 mg/kg subcutaneous): 1 out of 3; death (animals) ([3]; 0.3 mg/kg subcutaneous): 5 out of 6; death (animals) ([3]; 0.4 mg/kg subcutaneous): 3 out of 3
CC(C[N+](C)(C)C)OC(N)=O (stereo not drawn) [bethanechol],,,,,,,,,,,,,increase,,,,
Nc1nc(CC(=O)Nc2ccc(CCNC[C@H](O)c3ccccc3)cc2)cs1 [mirabegron],,had no effect,,,,,,,,,,,,,,,
